Data on twelve compounds can be found in article PMC7698448, “Design, Synthesis, and Biological Evaluation of Pyridazinones Containing the (2-Fluorophenyl) Piperazine Moiety as Selective MAO-B Inhibitors” (Molecules, 2020).

Entries after “also recorded” stand apart in the source; their conditions may differ. Bounds are passed on as bounds.

Data set [1] addresses T1, recombinant human MAO-A (Homo sapiens, UniProt P21397).
T1 construct: purchased Sigma-Aldrich
T1 sequence (P21397 1-527): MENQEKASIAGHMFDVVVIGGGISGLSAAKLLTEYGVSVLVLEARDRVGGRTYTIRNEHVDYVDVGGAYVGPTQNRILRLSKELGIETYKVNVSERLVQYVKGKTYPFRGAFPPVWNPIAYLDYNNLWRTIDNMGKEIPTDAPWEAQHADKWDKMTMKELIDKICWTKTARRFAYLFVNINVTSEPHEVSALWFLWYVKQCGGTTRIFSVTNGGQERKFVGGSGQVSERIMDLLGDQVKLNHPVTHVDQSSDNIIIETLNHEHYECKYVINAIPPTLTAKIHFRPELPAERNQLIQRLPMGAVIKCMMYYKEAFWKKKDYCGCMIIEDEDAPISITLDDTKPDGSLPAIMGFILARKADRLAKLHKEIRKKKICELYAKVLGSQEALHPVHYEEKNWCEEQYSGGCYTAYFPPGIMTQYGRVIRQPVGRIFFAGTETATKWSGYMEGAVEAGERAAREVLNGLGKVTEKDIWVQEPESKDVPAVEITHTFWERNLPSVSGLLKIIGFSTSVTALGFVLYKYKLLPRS
The experiment in a line: Recombinant human MAO-A inhibition assay (kynuramine substrate). As to conditions: kynuramine 0.06 mM, 15 min preincubation; for remaining activity at 10 µM: inhibitor 10 µM, read-out: Residual Activity (%) MAO-A (10 µM). It counts as biochemical.
Description: Recombinant human MAO-A and MAO-B inhibitory activities of were continuously assayed as described previously [37], using kynuramine (0.06 mM) and benzylamine (0.3 mM), respectively. […] MAO-A and MAO-B inhibitory activities were measured after preincubating enzymes and inhibitors for 15 min.
The inhibitory activities of the twelve compounds against MAO-A and MAO-B were first investigated at an inhibitor concentration of 10 µM. For the compounds showing residual activities of <50%, IC50 values for MAO-A and MAO-B inhibitions were determined. Kinetic experiments were carried out at five substrate and three inhibitor concentrations [38].

In data set [2] the target is T2, MAO-B (Homo sapiens, UniProt P27338).
T2 sequence (P27338 1-520): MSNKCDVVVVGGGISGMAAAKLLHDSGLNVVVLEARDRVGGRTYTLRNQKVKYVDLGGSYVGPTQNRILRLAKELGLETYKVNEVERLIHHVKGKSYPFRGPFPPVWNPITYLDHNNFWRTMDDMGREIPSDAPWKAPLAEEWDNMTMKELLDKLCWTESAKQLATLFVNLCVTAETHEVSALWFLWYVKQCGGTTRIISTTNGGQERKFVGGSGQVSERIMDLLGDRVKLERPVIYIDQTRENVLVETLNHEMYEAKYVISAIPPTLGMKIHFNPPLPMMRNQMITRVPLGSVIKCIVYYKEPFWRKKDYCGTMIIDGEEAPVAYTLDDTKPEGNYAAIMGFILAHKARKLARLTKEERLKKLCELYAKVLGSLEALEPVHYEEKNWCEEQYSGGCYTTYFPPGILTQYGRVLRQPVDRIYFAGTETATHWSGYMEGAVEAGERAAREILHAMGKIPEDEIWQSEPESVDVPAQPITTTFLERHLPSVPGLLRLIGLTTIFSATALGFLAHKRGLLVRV
The experiment in a line: Recombinant human MAO-B inhibition assay (benzylamine substrate). The note with it: for SI (IC50 of MAO-A/IC50 of MAO-B): selectivity index for MAO-B; for Times more potent on MAO-B than lazabemide: ratio of MAO-B potency versus reference reversible inhibitor lazabemide.
Description: Recombinant human MAO-A and MAO-B inhibitory activities of were continuously assayed as described previously [37], using kynuramine (0.06 mM) and benzylamine (0.3 mM), respectively. […] MAO-A and MAO-B inhibitory activities were measured after preincubating enzymes and inhibitors for 15 min. Enzymes and chemicals were obtained from Sigma-Aldrich (St. Louis, MO, USA).
(§2) Kinetic experiments were carried out at five substrate and three inhibitor concentrations [38].

Data set [3] addresses T2, MAO-B. The experiment in a line: Kinetics of MAO-B inhibition (Lineweaver-Burk and secondary plots). It counts as biochemical. Further details: purchased Sigma-Aldrich.
Description: as §2
The subject of data set [4] is L929 cells. As to the kind of experiment: MTS cytotoxicity assay in L929 cells. It counts as cell-based, mouse. The note with it: 48 h. Here is the method: (§1) An MTS (5-(3-carboxymethoxyphenyl)-2-(4,5-dimethyl-thiazolyl)-3-(4-sulfophenyl)) tetrazolium assay was used to evaluate the cytotoxic activities of T3 and T6 by measuring formazan absorbance. MTS is converted to formazan by mitochondria in metabolically active cells via NAD(P)H-dependent dehydrogenase enzymes. L929 cells (a mouse fibroblast cell line) were used to evaluate the cytotoxicities. Briefly, cells (5 × 10^4 cells/well) were seeded into 96-well plates in DMEM containing 10% fetal bovine serum and 1% penicillin/streptomycin, and incubated for 24 h. After supernatants were removed, the cells were treated with the compounds dissolved in DMSO (at 1, 10, 20, 50, or 100 µM) in triplicate for 48 h at 37 °C in a 5% CO2 atmosphere. MTS reagent (Uptima, Interchim, Montluçon, France) was then added to each well and incubated for 3 h. Absorbances were measured at 490 nm using a microplate reader (BioTek, Winooski, VT, USA), and cell viabilities were calculated as percentage of untreated controls.
In general terms: Tetrazolium assays rely on reduction of a dye to a coloured formazan, in cell work by metabolically active cells.

Data set [5] in a line: MTS cytotoxicity assay in L929 cells. It counts as cell-based, mouse. As to conditions: mouse, L929 cells (mouse fibroblast cell line), 48 h treatment. Here is the method: as §1
Data set [6] addresses T2, MAO-B. The experiment in a line: Reversibility of MAO-B inhibition by dialysis. As to conditions: for Relative MAO-B activity of dialyzed sample (AD) / Relative MAO-B activity of undialyzed sample (AU): 30 min preincubation, T3 0.080 µM, T6 0.020 µM, lazabemide 0.30 µM; for Relative MAO-B activity of dialyzed sample (AD): after dialysis; for Reversibility of MAO-B inhibition (recovery by dialysis): pargyline 0.060 µM. It counts as biochemical. On the set-up: purchased Sigma-Aldrich. Here is the method: Reversibility studies were performed using a dialysis-based method.
The reversibilities of T3 and T6 inhibitions were investigated by dialysis after preincubating them with MAO-B for 30 min, as previously described. […] Reversibilities were determined using the relative activities of undialyzed (AU) and dialyzed (AD) samples [40].

In turn, `O=C(Cn1nc(N2CCN(c3ccccc3F)CC2)ccc1=O)NN=Cc1ccc(F)cc1` [Compound T10, 6-[4-(2-Fluorophenyl)piperazine-1-yl]-3(2H)-pyridazinone-2-acetyl-2-(4-florobenzal)hydrazon] displayed a melting point of 178 to 180 °C. Moreover, in data set [1], the remaining activity at 10 µM was 33.7 ± 4.7% and the IC50 came to 7.35 ± 0.059 µM. Further, in data set [2], the IC50 came out at 35300 ± 390 nM and the “SI (IC50 of MAO-A/IC50 of MAO-B)” value is reported as 0.21.

Regarding `COc1ccc(C=NNC(=O)Cn2nc(N3CCN(c4ccccc4F)CC3)ccc2=O)cc1` [Compound T11, 6-[4-(2-Fluorophenyl)piperazine-1-yl]-3(2H)-pyridazinone-2-acetyl-2-(4-methoxybenzal)hydrazon], the melting point lay within 148 to 150 °C. The remaining activity at 10 µM in data set [1] was 70.4 ± 8.5%. Further, in data set [2], the IC50 is 6860 ± 370 nM.

`O=C(Cn1nc(N2CCN(c3ccccc3F)CC2)ccc1=O)NN=Cc1ccccc1F` [Compound T9, 6-[4-(2-Fluorophenyl)piperazine-1-yl]-3(2H)-pyridazinone-2-acetyl-2-(2-fluorobenzal)hydrazon] came in with a melting point of 225 to 226 °C. For the same compound, in data set [1], the remaining activity at 10 µM stood at 35.2 ± 0.56% and the IC50 came to 6.76 ± 0.46 µM. In data set [2], the IC50 worked out at 200 ± 1.7 nM and the “SI (IC50 of MAO-A/IC50 of MAO-B)” value was 33.8.

Consider `O=C(Cn1nc(N2CCN(c3ccccc3F)CC2)ccc1=O)NN=Cc1cccc(Br)c1` [Compound T8, 6-[4-(2-Fluorophenyl)piperazine-1-yl]-3(2H)-pyridazinone-2-acetyl-2-(3-bromobenzal)hydrazon], for which the melting point was 207 to 208 °C. For the same compound, the remaining activity at 10 µM in data set [1] amounted to 73.3 ± 2.86%. Moreover, the half-maximal inhibitory concentration (IC50) in data set [2] stood at 2670 ± 51 nM.

Take `COc1ccccc1C=NNC(=O)Cn1nc(N2CCN(c3ccccc3F)CC2)ccc1=O` [Compound T6]: in data set [3], the “Type of MAO-B inhibition” value is reported as “competitive inhibitors”. In data set [4] (1, 10, 20, 50, or 100 µM), the “Cytotoxic effect on L929 cells at any dose” value is on record as “did not have a cytotoxic effect”. In addition, the IC50 at 48 h in data set [5] is over 100000 nM. In addition, in data set [1], the remaining activity at 10 µM is 20.7 ± 0.62% and the IC50 turned out to be 1.57 ± 0.8 µM. In data set [6], the “Relative MAO-B activity of dialyzed sample (AD)” value stood at 79.0%, the “Relative MAO-B activity of undialyzed sample (AU)” value is 36.9% and the “Reversibility of MAO-B inhibition (recovery by dialysis)” value was “reversibly inhibit MAO-B; also recorded: reversible”. In data set [2], the half-inhibitory concentration (IC50) is 13 ± 1.6 nM, the “Times more potent on MAO-B than lazabemide” value was 11 and the “SI (IC50 of MAO-A/IC50 of MAO-B)” value is listed as 120.8. In data set [2] (versus reference irreversible inhibitor pargyline), the “MAO-B potency relative to pargyline” value is “twice as potent”.

Regarding `CN(C)c1ccc(C=NNC(=O)Cn2nc(N3CCN(c4ccccc4F)CC3)ccc2=O)cc1` [Compound T7], in data set [1], the remaining activity at 10 µM was found to be 25.4 ± 6.92% and the IC50 turned out to be 4.43 ± 0.29 µM. Moreover, in data set [2], the IC50 is 870 ± 56 nM.

For the compound `O=C(Cn1nc(N2CCN(c3ccccc3F)CC2)ccc1=O)NN=Cc1ccccc1` [Compound T1], in data set [1], the remaining activity at 10 µM was determined as 96.6 ± 1.2%. Moreover, in data set [2], the IC50 turned out to be 7680 ± 140 nM.

`Cc1ccccc1C=NNC(=O)Cn1nc(N2CCN(c3ccccc3F)CC2)ccc1=O` [Compound T12, 6-[4-(2-Fluorophenyl)piperazine-1-yl]-3(2H)-pyridazinone-2-acetyl-2-(2-methylbenzal)hydrazon] had a melting point of 244 to 245 °C. Besides, the remaining activity at 10 µM in data set [1] turned out to be 61.8 ± 1.65%. The IC50 in data set [2] worked out at 150 ± 21 nM.

For `Cc1ccc(C=NNC(=O)Cn2nc(N3CCN(c4ccccc4F)CC3)ccc2=O)cc1` [Compound T2], in data set [1], the remaining activity at 10 µM stood at 24.6 ± 2.86% and the IC50 turned out to be 4.29 ± 0.12 µM. For the same compound, in data set [2], the IC50 amounted to 100 ± 35 nM and the “SI (IC50 of MAO-A/IC50 of MAO-B)” value is 42.9.

Regarding `O=C(Cn1nc(N2CCN(c3ccccc3F)CC2)ccc1=O)NN=Cc1ccc(Cl)cc1` [Compound T4], the remaining activity at 10 µM in data set [1] was 75.2 ± 4.7%. The IC50 in data set [2] came to 99 ± 6.9 nM.

As to `O=C(Cn1nc(N2CCN(c3ccccc3F)CC2)ccc1=O)NN=Cc1ccc(Br)cc1` [Compound T5], the remaining activity at 10 µM in data set [1] came out at 84 ± 0.68%. The IC50 in data set [2] came to 1680 ± 110 nM.

With `O=C(Cn1nc(N2CCN(c3ccccc3F)CC2)ccc1=O)NN=Cc1ccccc1Cl` [Compound T3], the “Type of MAO-B inhibition” value in data set [3] was “competitive inhibitors”. The “Cytotoxic effect on L929 cells at 1, 10, or 20 µM” value in data set [4] (1, 10, or 20 µM) was “no significant death”. Moreover, the “Cytotoxic effect on L929 cells at 50 and 100 µM” value in data set [4] (50 and 100 µM) is recorded as “complete cell death”. This compound also registered a 50% inhibitory concentration (IC50) at 48 h in data set [5] of 27000 nM. For the same compound, in data set [1], the remaining activity at 10 µM worked out at 24.6 ± 0.97% and the IC50 came to 4.19 ± 0.27 µM. Besides, in data set [6], the “Relative MAO-B activity of dialyzed sample (AD)” value turned out to be 79.4%, the “Relative MAO-B activity of undialyzed sample (AU)” value is on record as 22.2% and the “Reversibility of MAO-B inhibition (recovery by dialysis)” value is listed as “reversibly inhibit MAO-B; also recorded: reversible”. In data set [2], the IC50 turned out to be 39 ± 2.8 nM, the “Times more potent on MAO-B than lazabemide” value was 3 and the “SI (IC50 of MAO-A/IC50 of MAO-B)” value is listed as 107.4.

What is called IC50 is the concentration that inhibits the measured activity by half. As usually defined, the melting point is the temperature, or range, at which the solid turns liquid.
